Source: the NIST ThermoML archive (doi:10.1016/j.fluid.2017.01.019)

How the values were obtained:
[1] = xn = mol fraction of the nth substance listed; conditions: 100 kPa, Liquid, x2 = 0; for viscosity: Falling or rolling sphere viscometry; for speed of sound: Frequency=3 MHz, Sing-around technique in a fixed-path interferometer; for mass density: Vibrating tube method
[2] = 101.33 kPa, Liquid; for viscosity: Falling or rolling sphere viscometry; for speed of sound: Sing-around technique in a fixed-path interferometer; for mass density: Vibrating tube method

CO [methanol] + CCCCO
[1]
Conditions | mass density [kg/m3] | speed of sound [m/s] | viscosity [mPa·s]
293.15 K | – | – | 0.55
298.15 K | 786.884 | 1103.3 | –
303.15 K | 782.158 | 1086.9 | 0.51
308.15 K | 777.414 | 1070.6 | 0.48
313.15 K | 772.64 | 1054.5 | 0.45
318.15 K | 767.844 | 1038.5 | 0.43
323.15 K | 763.028 | 1022.5 | 0.41

CO [methanol]
[2]
Conditions | mass density [kg/m3] | speed of sound [m/s] | viscosity [mPa·s]
298.15 K | 786.884 | 1103.3 | 0.55
303.15 K | 782.158 | 1086.9 | 0.51
308.15 K | 777.414 | 1070.6 | 0.48
313.15 K | 772.64 | 1054.5 | 0.45
318.15 K | 767.844 | 1038.5 | 0.43
323.15 K | 763.028 | 1022.5 | 0.41

CCCCO [butan-1-ol]
[2]
Conditions | mass density [kg/m3] | speed of sound [m/s] | viscosity [mPa·s]
298.15 K | 806.27 | 1239.8 | 2.61
303.15 K | 802.42 | 1223.2 | 2.31
308.15 K | 798.536 | 1206.3 | 2.07
313.15 K | 794.617 | 1189.7 | 1.85
318.15 K | 790.655 | 1173.1 | 1.66
323.15 K | 786.645 | 1156.5 | 1.5

CCCCO [butan-1-ol] + CCOS(=O)(=O)[O-].CCn1cc[n+](C)c1
[1]
Conditions | mass density [kg/m3] | speed of sound [m/s] | viscosity [mPa·s]
289.15 K | 806.27 | – | –
298.15 K | – | 1241.1 | 2.61
303.15 K | 802.42 | 1224.3 | 2.31
308.15 K | 798.536 | 1207.5 | 2.07
313.15 K | 794.617 | 1190.9 | 1.85
318.15 K | 790.655 | 1174.2 | 1.66
323.15 K | 786.645 | 1157.6 | 1.5

CO [methanol] + CCOS(=O)(=O)[O-].CCn1cc[n+](C)c1
[1]
Conditions | mass density [kg/m3] | speed of sound [m/s] | viscosity [mPa·s]
298.15 K | 786.884 | – | 0.55
303.15 K | 782.158 | 1086.9 | 0.51
308.15 K | 777.414 | 1070.6 | 0.48
313.15 K | 772.64 | 1054.5 | 0.45
318.15 K | 767.844 | 1038.5 | 0.43
323.15 K | 763.028 | 1022.5 | 0.41

CCOS(=O)(=O)[O-].CCn1cc[n+](C)c1 [1-ethyl-3-methylimidazolium ethyl sulfate]
[2]
Conditions | mass density [kg/m3] | speed of sound [m/s] | viscosity [mPa·s]
298.15 K | 1236.33 | 1682.3 | 96.21
303.15 K | 1232.93 | 1670 | 75.89
308.15 K | 1229.57 | 1657.9 | 60.73
313.15 K | 1226.21 | 1645.9 | 49.38
318.15 K | 1222.87 | 1634.1 | 40.93
323.15 K | 1219.54 | 1622.3 | 33.82
